Measurements: US20250250230A1, “HETEROCYCLIC COMPOUND” (TAKEDA PHARMACEUTICAL COMPANY LIMITED, priority 2022, published 2025)

target: T1, human orexin type 2 receptor (Homo sapiens, UniProt O43614); assay: Measurement of orexin type 2 receptor agonist activity (calcium fluorescence, Fluo-4 AM, FDSS); format: cell-based; conditions: test compound 3 μM; CHO cells expressing human OX2 receptor; DMSO = 0%, orexin A (human) = 100%
T1 construct: expressed in transfected cells
T1 sequence (O43614 1-444): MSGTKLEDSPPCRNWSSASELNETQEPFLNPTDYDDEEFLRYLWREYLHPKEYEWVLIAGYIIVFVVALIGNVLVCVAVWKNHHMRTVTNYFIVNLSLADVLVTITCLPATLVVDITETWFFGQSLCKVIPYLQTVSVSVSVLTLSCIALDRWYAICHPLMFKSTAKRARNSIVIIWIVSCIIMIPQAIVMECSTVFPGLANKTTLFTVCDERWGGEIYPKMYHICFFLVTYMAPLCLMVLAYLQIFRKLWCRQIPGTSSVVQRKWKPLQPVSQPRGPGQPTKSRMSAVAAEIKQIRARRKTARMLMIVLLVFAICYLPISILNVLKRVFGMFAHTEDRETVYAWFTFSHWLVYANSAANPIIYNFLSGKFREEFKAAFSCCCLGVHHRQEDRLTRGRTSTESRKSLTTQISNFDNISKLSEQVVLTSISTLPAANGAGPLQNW
Procedure, shortened: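 Agonist response scaled between vehicle (0%) and human orexin A at 10 nM final (100%), from 2-min kinetic Fluo-4 fluorescence reads. Stable hOX2R CHO-K1 clone, dye-loaded in HBSS/20 mM HEPES/0.1% BSA with 1.25 mM probenecid before compound addition.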

Compared with `CS(=O)(=O)NC[C@H]1[C@H](C(F)F)CN1C(=O)[C@@H]1C[C@@]1(F)c1ccccc1-c1c(F)cccc1F` [Example 405, N-{[(2R,3R)-1-[(1S,2S)-2-(2′,6′-difluoro[1,1′-biphenyl]-2-yl)-2-fluorocyclopropane-1-carbonyl]-3-(difluoromethyl)azetidin-2-yl]methyl}methanesulfonamide], `CC(=O)[C@@H]1CN(C(=O)[C@@H]2C[C@@]2(F)c2ccccc2-c2c(F)cccc2F)[C@H]1CNS(C)(=O)=O` [Example 406, N-({(2R,3R)-3-acetyl-1-[(1S,2S)-2-(2′,6′-difluoro[1,1′-biphenyl]-2-yl)-2-fluorocyclopropane-1-carbonyl]azetidin-2-yl}methyl)methanesulfonamide] is lower in “OX2R agonist activity (3 μM, %)” value: 96% for the first, 50% for the second.

First: CS(=O)(=O)NC[C@@H]1CCN1C(=O)[C@@H]1C[C@H]1c1ccccc1-c1c(F)ccc(F)c1F [Example 408, N-({(2S)-1-[(1R,2R)-2-(2′,3′,6′-trifluoro[1,1′-biphenyl]-2-yl)cyclopropane-1-carbonyl]azetidin-2-yl}methyl)methanesulfonamide]
Second: CS(=O)(=O)NC[C@@H]1[C@H](F)CN1C(=O)C1(CC#N)CC1c1ccccc1-c1c(F)cccc1F (stereo partly drawn) [Example 428, N-({(2R,3R)-1-[(1R,2R)-1-(cyanomethyl)-2-(2′,6′-difluoro[1,1′-biphenyl]-2-yl)cyclopropane-1-carbonyl]-3-fluoroazetidin-2-yl}methyl)methanesulfonamide, or N-({(2R,3R)-1-[(1S,2S)-1-(cyanomethyl)-2-(2′,6′-difluoro[1,1′-biphenyl]-2-yl)cyclopropane-1-carbonyl]-3-fluoroazetidin-2-yl}methyl)methanesulfonamide]
The “OX2R agonist activity (3 μM, %)” value of the first is higher: 73% for the first, 53% for the second.

First: CS(=O)(=O)NCC1N(C(=O)[C@@H]2C[C@@]2(F)c2ccccc2-c2c(F)cccc2F)CC1(F)F (stereo partly drawn) [Example 409, N-({(2R)-1-[(1S,2S)-2-(2′,6′-difluoro[1,1′-biphenyl]-2-yl)-2-fluorocyclopropane-1-carbonyl]-3,3-difluoroazetidin-2-yl}methyl)methanesulfonamide, or N-({(2S)-1-[(1S,2S)-2-(2′,6′-difluoro[1,1′-biphenyl]-2-yl)-2-fluorocyclopropane-1-carbonyl]-3,3-difluoroazetidin-2-yl}methyl)methanesulfonamide]
Second: CCS(=O)(=O)NC[C@@H]1[C@@H](F)CN1C(=O)[C@@H]1C[C@@]1(F)c1ccccc1-c1c(F)cccc1F [Example 414, N-({(2R,3S)-1-[(1S,2S)-2-(2′,6′-difluoro[1,1′-biphenyl]-2-yl)-2-fluorocyclopropane-1-carbonyl]-3-fluoroazetidin-2-yl}methyl)ethanesulfonamide]
The “OX2R agonist activity (3 μM, %)” value of the first is lower: 100% for the first, 101% for the second.

First: CCS(=O)(=O)NC[C@@H]1[C@H](F)CN1C(=O)[C@@H]1C[C@@]1(F)c1ccc(C)cc1-c1c(F)cccc1F [Example 410, N-({(2R,3R)-1-[(1S,2S)-2-(2′,6′-difluoro-5-methyl[1,1′-biphenyl]-2-yl)-2-fluorocyclopropane-1-carbonyl]-3-fluoroazetidin-2-yl}methyl)ethanesulfonamide]
Second: CCS(=O)(=O)NC[C@H]1[C@H](F)CN1C(=O)[C@@H]1C[C@@]1(F)c1ccccc1-c1c(F)cccc1F [Example 417, N-({(2S,3R)-1-[(1S,2S)-2-(2′,6′-difluoro[1,1′-biphenyl]-2-yl)-2-fluorocyclopropane-1-carbonyl]-3-fluoroazetidin-2-yl}methyl)ethanesulfonamide]
The “OX2R agonist activity (3 μM, %)” value of the first is higher: 103% for the first, 98% for the second.

Compared with `CS(=O)(=O)NC[C@@H]1[C@H](F)CN1C(=O)[C@@H]1C[C@@]1(F)c1ccc(F)cc1-c1c(F)cccc1F` [Example 413, N-({(2R,3R)-3-fluoro-1-[(1S,2S)-2-fluoro-2-(2′,5,6′-trifluoro[1,1′-biphenyl]-2-yl)cyclopropane-1-carbonyl]azetidin-2-yl}methyl)methanesulfonamide], `CCNS(=O)(=O)NC[C@@H]1[C@H](F)CN1C(=O)[C@@H]1C[C@@]1(F)c1ccc(F)cc1-c1c(F)cccc1F` [Example 427, N-ethyl-N′-({(2R,3R)-3-fluoro-1-[(1S,2S)-2-fluoro-2-(2′,5,6′-trifluoro[1,1′-biphenyl]-2-yl)cyclopropane-1-carbonyl]azetidin-2-yl}methyl)sulfuric diamide] is lower in “OX2R agonist activity (3 μM, %)” value: 109% for the first, 96% for the second.

Compared with `CC(NS(C)(=O)=O)[C@@H]1[C@H](F)CN1C(=O)[C@@H]1C[C@@]1(F)c1ccccc1-c1c(F)cccc1F` (stereo partly drawn) [Example 415, N-[(1R)-1-{(2R,3R)-1-[(1S,2S)-2-(2′,6′-difluoro[1,1′-biphenyl]-2-yl)-2-fluorocyclopropane-1-carbonyl]-3-fluoroazetidin-2-yl}ethyl]methanesulfonamide, or N-[(1S)-1-{(2R,3R)-1-[(1S,2S)-2-(2′,6′-difluoro[1,1′-biphenyl]-2-yl)-2-fluorocyclopropane-1-carbonyl]-3-fluoroazetidin-2-yl}ethyl]methanesulfonamide], `CCS(=O)(=O)NC(C)[C@@H]1[C@H](F)CN1C(=O)[C@@H]1C[C@@]1(F)c1ccccc1-c1c(F)cccc1F` (stereo partly drawn) [Example 416, N-[(1R)-1-{(2R,3R)-1-[(1S,2S)-2-(2′,6′-difluoro[1,1′-biphenyl]-2-yl)-2-fluorocyclopropane-1-carbonyl]-3-fluoroazetidin-2-yl}ethyl]ethanesulfonamide, or N-[(1S)-1-{(2R,3R)-1-[(1S,2S)-2-(2′,6′-difluoro[1,1′-biphenyl]-2-yl)-2-fluorocyclopropane-1-carbonyl]-3-fluoroazetidin-2-yl}ethyl]ethanesulfonamide] is higher in “OX2R agonist activity (3 μM, %)” value: 96% for the first, 97% for the second.

First: CS(=O)(=O)NC([C@@H]1CCN1C(=O)[C@@H]1C[C@@]1(F)c1ccccc1-c1c(F)cccc1F)C1(O)CC1 (stereo partly drawn) [Example 418, N-[(R)-{(2S)-1-[(1S,2S)-2-(2′,6′-difluoro[1,1′-biphenyl]-2-yl)-2-fluorocyclopropane-1-carbonyl]azetidin-2-yl}(1-hydroxycyclopropyl)methyl]methane-sulfonamide, or N-[(S)-{(2S)-1-[(1S,2S)-2-(2′,6′-difluoro[1,1′-biphenyl]-2-yl)-2-fluorocyclopropane-1-carbonyl]azetidin-2-yl}(1-hydroxycyclopropyl)methyl]methanesulfonamide]
Second: COC[C@H](NS(C)(=O)=O)C1CCN1C(=O)[C@@H]1C[C@@]1(F)c1ccccc1-c1c(F)cccc1F (stereo partly drawn) [Example 419, N-[(1R)-1-{(2R)-1-[(1S,2S)-2-(2′,6′-difluoro[1,1′-biphenyl]-2-yl)-2-fluorocyclopropane-1-carbonyl]azetidin-2-yl}-2-methoxyethyl]methanesulfonamide, or N-[(1R)-1-{(2S)-1-[(1S,2S)-2-(2′,6′-difluoro[1,1′-biphenyl]-2-yl)-2-fluorocyclopropane-1-carbonyl]azetidin-2-yl}-2-methoxyethyl]methanesulfonamide]
The “OX2R agonist activity (3 μM, %)” value of the first is lower: 99% for the first, 104% for the second.

Compared with `CN(C)S(=O)(=O)NC[C@@H]1[C@H](F)CN1C(=O)[C@@H]1C[C@@]1(F)c1ccc(F)cc1-c1c(F)cccc1F` [Example 424, N′-({(2R,3R)-3-fluoro-1-[(1S,2S)-2-fluoro-2-(2′,5,6′-trifluoro[1,1′-biphenyl]-2-yl)cyclopropane-1-carbonyl]azetidin-2-yl}methyl)-N,N-dimethylsulfuric diamide], `O=C([C@@H]1C[C@@]1(F)c1ccc(F)cc1-c1c(F)cccc1F)N1C[C@@H](F)[C@H]1CNS(=O)(=O)CF` [Example 430, 1-fluoro-N-({(2R,3R)-3-fluoro-1-[(1S,2S)-2-fluoro-2-(2′,5,6′-trifluoro[1,1′-biphenyl]-2-yl)cyclopropane-1-carbonyl]azetidin-2-yl}methyl)methanesulfonamide] is lower in “OX2R agonist activity (3 μM, %)” value: 98% for the first, 92% for the second.

Compared with `CC(C)NS(=O)(=O)NC[C@@H]1[C@H](F)CN1C(=O)[C@@H]1C[C@@]1(F)c1ccc(F)cc1-c1c(F)cccc1F` [Example 425, N-({(2R,3R)-3-fluoro-1-[(1S,2S)-2-fluoro-2-(2′,5,6′-trifluoro[1,1′-biphenyl]-2-yl)cyclopropane-1-carbonyl]azetidin-2-yl}methyl)-N′-propan-2-ylsulfuric diamide], `O=C([C@@H]1C[C@@]1(F)c1ccc(F)cc1-c1c(F)cccc1F)N1C[C@@H](F)[C@H]1CNS(=O)(=O)C1CC1` [Example 429, N-({(2R,3R)-3-fluoro-1-[(1S,2S)-2-fluoro-2-(2′,5,6′-trifluoro[1,1′-biphenyl]-2-yl)cyclopropane-1-carbonyl]azetidin-2-yl}methyl)cyclopropanesulfonamide] is higher in “OX2R agonist activity (3 μM, %)” value: 72% for the first, 99% for the second.

`CCS(=O)(=O)NC[C@H]1[C@@H](F)CN1C(=O)[C@@H]1C[C@@]1(F)c1ccccc1-c1c(F)cccc1F` [Example 426, N-({(2S,3S)-1-[(1S,2S)-2-(2′,6′-difluoro[1,1′-biphenyl]-2-yl)-2-fluorocyclopropane-1-carbonyl]-3-fluoroazetidin-2-yl}methyl)ethanesulfonamide] was tested, and the “OX2R agonist activity (3 μM, %)” value was 104%.
